The numbers were not newly measured in US4127538A, “Novel pentacosapeptides, intermediates therefor and pharmaceutical compositions and methods employing said pentacosapeptides” (priority 1977, dated 1978), which cites them from elsewhere.

Series [1] deals with partially purified brain opiate receptor sites.
For series [2] the following is noted: injected directly into the brain of the rat.

As to “H-Tyr-Gly-Gly-Phe-Met-OH [methionine enkephalin]”, the “binding to partially purified brain opiate receptor sites” value in series [1] was “binds stereo-specifically”. The analgesic effect entry in series [2] is listed as “weak analgesic agent of short duration”.
